Laboratory results reported in patent publication US6869589B1, “Cryptate compounds and methods for diagnosis and therapy” (Australian Nuclear Science & Technology Organization, priority 1999, dated 2005).

Assay: Biodistribution of ^64Cu complexes in balb/c mice
Description: The biodistribution of the ^64Cu complexes of compounds (1), (3) and (4) (0.10 ml intravenous injection) were evaluated in balb/c mice (5 animals per time point) at 3, 5, 10, 15, 20 and 30 minute time intervals. Biodistribution studies were performed in duplicate.

NC12CNCCNCC(N)(CNCCNC1)CNCCNC2.[64Cu+2] [^64Cu-labelled compound (1)]
% injected dose per gram (BLADDER, 3 MIN): 24.36 % INJECTED DOSE PER GRAM
% injected dose per gram (BLADDER, 5 MIN): 31.12 % INJECTED DOSE PER GRAM
% injected dose per gram (BLADDER, 10 MIN): 27.75 % INJECTED DOSE PER GRAM
% injected dose per gram (BLADDER, 15 MIN): 15.17 % INJECTED DOSE PER GRAM
% injected dose per gram (BLADDER, 20 MIN): 23.29 % INJECTED DOSE PER GRAM
% injected dose per gram (BLADDER, 30 MIN): 122.93 % INJECTED DOSE PER GRAM
% injected dose per gram (BLOOD, 3 MIN): 8.68 % INJECTED DOSE PER GRAM
% injected dose per gram (BLOOD, 5 MIN): 6.32 % INJECTED DOSE PER GRAM
% injected dose per gram (BLOOD, 10 MIN): 5.45 % INJECTED DOSE PER GRAM
% injected dose per gram (BLOOD, 15 MIN): 2.48 % INJECTED DOSE PER GRAM
% injected dose per gram (BLOOD, 20 MIN): 2.63 % INJECTED DOSE PER GRAM
% injected dose per gram (BLOOD, 30 MIN): 1.14 % INJECTED DOSE PER GRAM
% injected dose per gram (BONE, 3 MIN): 2.25 % INJECTED DOSE PER GRAM
% injected dose per gram (BONE, 5 MIN): 1.87 % INJECTED DOSE PER GRAM
% injected dose per gram (BONE, 10 MIN): 1.79 % INJECTED DOSE PER GRAM
% injected dose per gram (BONE, 15 MIN): 1.23 % INJECTED DOSE PER GRAM
% injected dose per gram (BONE, 20 MIN): 1.25 % INJECTED DOSE PER GRAM
% injected dose per gram (BONE, 30 MIN): 0.78 % INJECTED DOSE PER GRAM
% injected dose per gram (GIT, 3 MIN): 2.75 % INJECTED DOSE PER GRAM
% injected dose per gram (GIT, 5 MIN): 2.21 % INJECTED DOSE PER GRAM
% injected dose per gram (GIT, 10 MIN): 1.85 % INJECTED DOSE PER GRAM
% injected dose per gram (GIT, 15 MIN): 1.11 % INJECTED DOSE PER GRAM
% injected dose per gram (GIT, 20 MIN): 1.05 % INJECTED DOSE PER GRAM
% injected dose per gram (GIT, 30 MIN): 1.16 % INJECTED DOSE PER GRAM
% injected dose per gram (HEART, 3 MIN): 3.11 % INJECTED DOSE PER GRAM
% injected dose per gram (HEART, 5 MIN): 2.25 % INJECTED DOSE PER GRAM
% injected dose per gram (HEART, 10 MIN): 2.27 % INJECTED DOSE PER GRAM
% injected dose per gram (HEART, 15 MIN): 0.89 % INJECTED DOSE PER GRAM
% injected dose per gram (HEART, 20 MIN): 1.23 % INJECTED DOSE PER GRAM
% injected dose per gram (HEART, 30 MIN): 0.40 % INJECTED DOSE PER GRAM
% injected dose per gram (KIDNEY, 3 MIN): 23.18 % INJECTED DOSE PER GRAM
% injected dose per gram (KIDNEY, 5 MIN): 11.50 % INJECTED DOSE PER GRAM
% injected dose per gram (KIDNEY, 10 MIN): 12.80 % INJECTED DOSE PER GRAM
% injected dose per gram (KIDNEY, 15 MIN): 6.77 % INJECTED DOSE PER GRAM
% injected dose per gram (KIDNEY, 20 MIN): 7.77 % INJECTED DOSE PER GRAM
% injected dose per gram (KIDNEY, 30 MIN): 4.95 % INJECTED DOSE PER GRAM
% injected dose per gram (LIVER, 3 MIN): 2.29 % INJECTED DOSE PER GRAM
% injected dose per gram (LIVER, 5 MIN): 1.50 % INJECTED DOSE PER GRAM
% injected dose per gram (LIVER, 10 MIN): 1.42 % INJECTED DOSE PER GRAM
% injected dose per gram (LIVER, 15 MIN): 0.82 % INJECTED DOSE PER GRAM
% injected dose per gram (LIVER, 20 MIN): 0.69 % INJECTED DOSE PER GRAM
% injected dose per gram (LIVER, 30 MIN): 0.50 % INJECTED DOSE PER GRAM
% injected dose per gram (LUNGS, 3 MIN): 6.51 % INJECTED DOSE PER GRAM
% injected dose per gram (LUNGS, 5 MIN): 4.45 % INJECTED DOSE PER GRAM
% injected dose per gram (LUNGS, 10 MIN): 3.91 % INJECTED DOSE PER GRAM
% injected dose per gram (LUNGS, 15 MIN): 2.06 % INJECTED DOSE PER GRAM
% injected dose per gram (LUNGS, 20 MIN): 2.73 % INJECTED DOSE PER GRAM
% injected dose per gram (LUNGS, 30 MIN): 0.85 % INJECTED DOSE PER GRAM
% injected dose per gram (MUSCLE, 3 MIN): 1.81 % INJECTED DOSE PER GRAM
% injected dose per gram (MUSCLE, 5 MIN): 1.81 % INJECTED DOSE PER GRAM
% injected dose per gram (MUSCLE, 10 MIN): 2.39 % INJECTED DOSE PER GRAM
% injected dose per gram (MUSCLE, 15 MIN): 2.28 % INJECTED DOSE PER GRAM
% injected dose per gram (MUSCLE, 20 MIN): 1.17 % INJECTED DOSE PER GRAM
% injected dose per gram (MUSCLE, 30 MIN): 1.33 % INJECTED DOSE PER GRAM
% injected dose per gram (SKIN, 3 MIN): 5.82 % INJECTED DOSE PER GRAM
% injected dose per gram (SKIN, 5 MIN): 5.59 % INJECTED DOSE PER GRAM
% injected dose per gram (SKIN, 10 MIN): 5.48 % INJECTED DOSE PER GRAM
% injected dose per gram (SKIN, 15 MIN): 2.61 % INJECTED DOSE PER GRAM
% injected dose per gram (SKIN, 20 MIN): 2.96 % INJECTED DOSE PER GRAM
% injected dose per gram (SKIN, 30 MIN): 1.63 % INJECTED DOSE PER GRAM
% injected dose per gram (SPLEEN, 3 MIN): 2.09 % INJECTED DOSE PER GRAM
% injected dose per gram (SPLEEN, 5 MIN): 1.48 % INJECTED DOSE PER GRAM
% injected dose per gram (SPLEEN, 10 MIN): 1.54 % INJECTED DOSE PER GRAM
% injected dose per gram (SPLEEN, 15 MIN): 1.44 % INJECTED DOSE PER GRAM
% injected dose per gram (SPLEEN, 20 MIN): 0.69 % INJECTED DOSE PER GRAM
% injected dose per gram (SPLEEN, 30 MIN): 0.52 % INJECTED DOSE PER GRAM
% injected dose per gram (STOMACH, 3 MIN): 3.50 % INJECTED DOSE PER GRAM
% injected dose per gram (STOMACH, 5 MIN): 2.73 % INJECTED DOSE PER GRAM
% injected dose per gram (STOMACH, 10 MIN): 2.08 % INJECTED DOSE PER GRAM
% injected dose per gram (STOMACH, 15 MIN): 1.50 % INJECTED DOSE PER GRAM
% injected dose per gram (STOMACH, 20 MIN): 1.16 % INJECTED DOSE PER GRAM
% injected dose per gram (STOMACH, 30 MIN): 0.74 % INJECTED DOSE PER GRAM
